Assay results as given in ChEMBL document CHEMBL5244269, “Improving metabolic stability and removing aldehyde oxidase liability in a 5-azaquinazoline series of IRAK4 inhibitors” (Bioorg Med Chem, 2020).

Columns and labels:
[1] = molecular target: BDNF/NT-3 growth factors receptor (Homo sapiens, UniProt Q16620); assay: Inhibition of TRKB (unknown origin) in presence of 25 uM ATP
[2] = Metabolic stability in human hepatocytes assessed as intrinsic clearance measured per 10^6 cells; type: ADME, cell-based, Hepatocyte; details: read-out: CLH
Homo sapiens [3] = species: Homo sapiens; assay: Selectivity index, ratio of IC50 for inhibition of TRKA (unknown origin) to IC50 for inhibition of IRAK4 (unknown origin)
Homo sapiens [4] = species: Homo sapiens; assay: Selectivity index, ratio of IC50 for inhibition of PI3Kdelta (unknown origin) to IC50 for inhibition of IRAK4 (unknown origin)
[5] = molecular target: High affinity nerve growth factor receptor (Homo sapiens, UniProt P04629); assay: Inhibition of TRKA (unknown origin) in presence of 400 uM ATP
[6] = molecular target: Tyrosine-protein kinase BTK (Homo sapiens, UniProt Q06187); assay: Inhibition of BTK (unknown origin) in presence of 25 uM ATP
[7] = molecular target: T1, Interleukin-1 receptor-associated kinase 4 (Homo sapiens, UniProt Q9NWZ3); assay: Inhibition of IRAK4 (unknown origin) phosphorylation by cell based assay
T1 sequence (Q9NWZ3 whole entry): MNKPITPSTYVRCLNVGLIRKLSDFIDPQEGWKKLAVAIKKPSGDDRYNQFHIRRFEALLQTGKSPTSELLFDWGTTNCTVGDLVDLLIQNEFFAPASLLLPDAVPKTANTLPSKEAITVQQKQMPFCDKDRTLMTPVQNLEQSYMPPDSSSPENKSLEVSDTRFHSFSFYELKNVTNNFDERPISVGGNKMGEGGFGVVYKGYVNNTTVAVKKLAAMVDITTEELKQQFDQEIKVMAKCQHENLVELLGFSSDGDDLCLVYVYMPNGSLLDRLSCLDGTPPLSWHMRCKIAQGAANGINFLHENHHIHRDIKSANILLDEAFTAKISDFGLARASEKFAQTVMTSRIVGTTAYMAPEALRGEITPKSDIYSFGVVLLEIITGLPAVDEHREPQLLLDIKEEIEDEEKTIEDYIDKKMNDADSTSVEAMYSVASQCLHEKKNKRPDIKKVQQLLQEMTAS

[8] = molecular target: T2, Receptor-type tyrosine-protein kinase FLT3 (Homo sapiens, UniProt P36888); assay: Inhibition of FLT3 (unknown origin) in presence of 600 uM ATP
T2 sequence (P36888 whole entry): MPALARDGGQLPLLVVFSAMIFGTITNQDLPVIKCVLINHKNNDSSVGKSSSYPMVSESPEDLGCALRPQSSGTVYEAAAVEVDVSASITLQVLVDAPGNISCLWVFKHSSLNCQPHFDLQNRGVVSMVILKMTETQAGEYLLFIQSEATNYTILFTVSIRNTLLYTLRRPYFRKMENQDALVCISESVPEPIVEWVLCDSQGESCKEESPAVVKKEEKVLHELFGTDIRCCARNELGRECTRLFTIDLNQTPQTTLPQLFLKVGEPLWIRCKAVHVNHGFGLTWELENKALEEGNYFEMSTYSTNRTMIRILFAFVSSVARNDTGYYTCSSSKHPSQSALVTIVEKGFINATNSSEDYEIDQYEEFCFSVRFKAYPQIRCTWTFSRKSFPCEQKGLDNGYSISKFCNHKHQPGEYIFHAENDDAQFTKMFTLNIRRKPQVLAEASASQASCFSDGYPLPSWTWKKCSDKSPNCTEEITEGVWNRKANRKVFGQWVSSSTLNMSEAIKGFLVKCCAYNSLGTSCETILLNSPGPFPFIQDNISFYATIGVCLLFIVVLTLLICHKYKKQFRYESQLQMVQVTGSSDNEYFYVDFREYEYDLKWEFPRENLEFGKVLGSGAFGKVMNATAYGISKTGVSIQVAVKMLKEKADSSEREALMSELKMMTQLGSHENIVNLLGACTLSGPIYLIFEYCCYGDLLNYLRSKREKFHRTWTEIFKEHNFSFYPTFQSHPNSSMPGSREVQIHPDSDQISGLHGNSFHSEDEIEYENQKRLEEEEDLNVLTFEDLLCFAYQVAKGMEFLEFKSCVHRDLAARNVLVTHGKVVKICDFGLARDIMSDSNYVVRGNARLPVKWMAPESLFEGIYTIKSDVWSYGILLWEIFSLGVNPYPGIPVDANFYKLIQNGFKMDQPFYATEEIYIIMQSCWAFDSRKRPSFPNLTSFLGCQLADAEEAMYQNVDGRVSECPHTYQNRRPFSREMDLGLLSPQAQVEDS

[9] = molecular target: NT-3 growth factor receptor (Homo sapiens, UniProt Q16288); assay: Inhibition of TRKC (unknown origin) in presence of 50 uM ATP
Homo sapiens [10] = species: Homo sapiens; assay: Selectivity index, ratio of IC50 for inhibition of FLT3 (unknown origin) to IC50 for inhibition of IRAK4 (unknown origin)
[11] = molecular target: Interleukin-1 receptor-associated kinase 1 (Homo sapiens, UniProt P51617); assay: Inhibition of IRAK1 (unknown origin) in presence of 25 uM ATP
Homo sapiens [12] = species: Homo sapiens; assay: Selectivity index, ratio of IC50 for inhibition of TRKC (unknown origin) to IC50 for inhibition of IRAK4 (unknown origin)
[13] = Metabolic stability in human cytosol assessed as intrinsic clearance; type: ADME, subcellular
[14] = Metabolic stability in human liver microsomes assessed as intrinsic clearance; type: ADME, Microsome; details: read-out: CLH
[15] = molecular target: T3, Phosphatidylinositol 4,5-bisphosphate 3-kinase catalytic subunit delta isoform (Homo sapiens, UniProt O00329); assay: Inhibition of PI3Kdelta (unknown origin) in presence of […] uM ATP
T3 sequence (O00329 whole entry): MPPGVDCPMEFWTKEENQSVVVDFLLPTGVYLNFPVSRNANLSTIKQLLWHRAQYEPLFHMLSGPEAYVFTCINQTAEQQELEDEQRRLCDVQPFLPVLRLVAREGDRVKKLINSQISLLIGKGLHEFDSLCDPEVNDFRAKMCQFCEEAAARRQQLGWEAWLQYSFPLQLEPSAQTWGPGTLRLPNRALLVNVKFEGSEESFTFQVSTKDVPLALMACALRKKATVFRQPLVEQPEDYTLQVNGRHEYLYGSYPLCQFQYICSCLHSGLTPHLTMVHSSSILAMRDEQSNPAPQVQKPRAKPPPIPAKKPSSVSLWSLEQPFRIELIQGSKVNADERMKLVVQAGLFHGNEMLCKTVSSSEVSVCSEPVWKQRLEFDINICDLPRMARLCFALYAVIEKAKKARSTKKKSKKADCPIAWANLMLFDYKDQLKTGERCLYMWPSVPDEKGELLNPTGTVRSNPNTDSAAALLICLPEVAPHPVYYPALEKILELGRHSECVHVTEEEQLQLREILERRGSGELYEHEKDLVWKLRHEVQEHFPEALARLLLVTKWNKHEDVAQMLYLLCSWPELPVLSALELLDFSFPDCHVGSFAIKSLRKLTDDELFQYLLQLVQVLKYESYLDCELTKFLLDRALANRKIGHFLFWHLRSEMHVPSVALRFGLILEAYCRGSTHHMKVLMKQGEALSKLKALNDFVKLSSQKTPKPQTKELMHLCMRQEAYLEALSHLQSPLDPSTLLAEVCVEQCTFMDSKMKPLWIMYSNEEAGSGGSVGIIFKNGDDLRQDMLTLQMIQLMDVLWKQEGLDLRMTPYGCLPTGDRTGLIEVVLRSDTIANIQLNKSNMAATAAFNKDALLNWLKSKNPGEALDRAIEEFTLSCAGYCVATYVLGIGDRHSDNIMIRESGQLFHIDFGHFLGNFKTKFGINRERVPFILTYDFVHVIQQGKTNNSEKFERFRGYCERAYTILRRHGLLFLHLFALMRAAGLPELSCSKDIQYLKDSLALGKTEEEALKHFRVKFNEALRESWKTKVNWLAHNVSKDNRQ

Homo sapiens [16] = species: Homo sapiens; assay: Selectivity index, ratio of IC50 for inhibition of IRAK1 (unknown origin) to IC50 for inhibition of IRAK4 (unknown origin)
[17] = molecular target: T1, Interleukin-1 receptor-associated kinase 4; assay: Inhibition of IRAK4 (unknown origin) in presence of ATP by enzymatic assay
[18] = Lipophilicity, LogD at pH 7.4 of the compound by shake flask method; type: physicochemical; details: buffer
Homo sapiens [19] = species: Homo sapiens; assay: Selectivity index, ratio of IC50 for inhibition of TRKB (unknown origin) to IC50 for inhibition of IRAK4 (unknown origin)
Homo sapiens [20] = species: Homo sapiens; assay: Selectivity index, ratio of IC50 for inhibition of BTK (unknown origin) to IC50 for inhibition of IRAK4 (unknown origin)
[21] = Efflux ratio of apparent permeability basolateral to apical side over apical to basolateral side in human Caco-2 cells measured for 360 mins by liquid scintillation counting based analysis; type: ADME, cell-based
[22] = Clearance in human assessed as liver blood flow; type: ADME, tissue-based
[23] = Apparent permeability across apical to basolateral side in human Caco-2 cells measured for 360 mins by liquid scintillation counting based analysis; type: ADME, cell-based
[24] = Clearance in human; type: ADME

Interleukin-1 receptor-associated kinase 1, sequence (P51617 whole entry): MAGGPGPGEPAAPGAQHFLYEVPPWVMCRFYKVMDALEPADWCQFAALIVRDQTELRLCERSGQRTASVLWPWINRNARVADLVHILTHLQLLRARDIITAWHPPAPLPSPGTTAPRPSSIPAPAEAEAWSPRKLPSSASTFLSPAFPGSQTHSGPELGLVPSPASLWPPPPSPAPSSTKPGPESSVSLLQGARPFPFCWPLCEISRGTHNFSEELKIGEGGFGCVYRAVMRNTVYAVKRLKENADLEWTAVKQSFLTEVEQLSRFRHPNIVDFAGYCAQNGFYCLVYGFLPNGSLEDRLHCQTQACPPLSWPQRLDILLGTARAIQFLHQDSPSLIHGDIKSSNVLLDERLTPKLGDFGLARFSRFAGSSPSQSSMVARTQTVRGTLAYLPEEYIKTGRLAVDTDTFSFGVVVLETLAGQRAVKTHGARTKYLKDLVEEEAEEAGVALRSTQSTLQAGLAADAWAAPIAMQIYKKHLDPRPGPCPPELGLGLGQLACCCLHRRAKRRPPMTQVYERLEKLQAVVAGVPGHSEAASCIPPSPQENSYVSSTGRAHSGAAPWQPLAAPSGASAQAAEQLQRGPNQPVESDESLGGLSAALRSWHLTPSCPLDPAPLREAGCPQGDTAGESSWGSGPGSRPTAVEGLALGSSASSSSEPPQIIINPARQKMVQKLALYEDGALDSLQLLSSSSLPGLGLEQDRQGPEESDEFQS
NT-3 growth factor receptor, sequence (Q16288 whole entry): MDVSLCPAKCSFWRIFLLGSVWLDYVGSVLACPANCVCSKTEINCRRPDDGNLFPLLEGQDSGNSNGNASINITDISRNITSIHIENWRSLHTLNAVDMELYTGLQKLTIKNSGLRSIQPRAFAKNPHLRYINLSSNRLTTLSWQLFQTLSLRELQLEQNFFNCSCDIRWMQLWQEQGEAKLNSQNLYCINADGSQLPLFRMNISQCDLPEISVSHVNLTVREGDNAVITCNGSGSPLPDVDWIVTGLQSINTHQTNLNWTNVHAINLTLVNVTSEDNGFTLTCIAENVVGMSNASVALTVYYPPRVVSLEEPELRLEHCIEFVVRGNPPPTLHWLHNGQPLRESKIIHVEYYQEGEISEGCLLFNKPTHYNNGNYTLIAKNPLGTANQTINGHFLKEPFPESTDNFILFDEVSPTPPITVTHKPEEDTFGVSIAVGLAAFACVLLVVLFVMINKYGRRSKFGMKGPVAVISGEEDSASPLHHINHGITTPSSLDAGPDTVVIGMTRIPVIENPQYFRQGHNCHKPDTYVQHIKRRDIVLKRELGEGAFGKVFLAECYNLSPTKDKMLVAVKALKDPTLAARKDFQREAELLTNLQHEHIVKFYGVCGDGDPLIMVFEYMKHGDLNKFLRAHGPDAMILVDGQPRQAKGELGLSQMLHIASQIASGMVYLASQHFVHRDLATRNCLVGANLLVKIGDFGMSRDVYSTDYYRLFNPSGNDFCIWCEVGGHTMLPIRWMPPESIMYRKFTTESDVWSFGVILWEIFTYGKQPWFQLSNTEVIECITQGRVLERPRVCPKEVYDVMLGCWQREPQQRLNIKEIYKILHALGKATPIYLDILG
Tyrosine-protein kinase BTK, sequence (Q06187 whole entry): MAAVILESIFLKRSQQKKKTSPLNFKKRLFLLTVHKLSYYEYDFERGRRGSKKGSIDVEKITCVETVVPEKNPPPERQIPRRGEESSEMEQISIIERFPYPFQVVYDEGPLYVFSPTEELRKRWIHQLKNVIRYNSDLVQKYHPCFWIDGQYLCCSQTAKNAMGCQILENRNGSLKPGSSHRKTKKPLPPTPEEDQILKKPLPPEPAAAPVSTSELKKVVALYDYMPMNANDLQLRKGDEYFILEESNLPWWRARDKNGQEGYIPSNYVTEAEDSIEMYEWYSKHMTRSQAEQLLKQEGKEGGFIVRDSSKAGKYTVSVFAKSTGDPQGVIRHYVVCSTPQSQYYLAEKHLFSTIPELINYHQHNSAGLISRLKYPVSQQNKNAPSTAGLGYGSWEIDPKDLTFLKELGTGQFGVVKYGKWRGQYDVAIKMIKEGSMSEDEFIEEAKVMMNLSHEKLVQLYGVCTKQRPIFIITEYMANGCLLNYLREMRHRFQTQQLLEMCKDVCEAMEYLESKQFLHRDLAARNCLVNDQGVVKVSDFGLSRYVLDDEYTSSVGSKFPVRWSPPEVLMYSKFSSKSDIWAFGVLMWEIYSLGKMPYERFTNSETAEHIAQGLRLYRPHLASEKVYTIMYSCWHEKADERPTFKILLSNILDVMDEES
High affinity nerve growth factor receptor, sequence (P04629 whole entry): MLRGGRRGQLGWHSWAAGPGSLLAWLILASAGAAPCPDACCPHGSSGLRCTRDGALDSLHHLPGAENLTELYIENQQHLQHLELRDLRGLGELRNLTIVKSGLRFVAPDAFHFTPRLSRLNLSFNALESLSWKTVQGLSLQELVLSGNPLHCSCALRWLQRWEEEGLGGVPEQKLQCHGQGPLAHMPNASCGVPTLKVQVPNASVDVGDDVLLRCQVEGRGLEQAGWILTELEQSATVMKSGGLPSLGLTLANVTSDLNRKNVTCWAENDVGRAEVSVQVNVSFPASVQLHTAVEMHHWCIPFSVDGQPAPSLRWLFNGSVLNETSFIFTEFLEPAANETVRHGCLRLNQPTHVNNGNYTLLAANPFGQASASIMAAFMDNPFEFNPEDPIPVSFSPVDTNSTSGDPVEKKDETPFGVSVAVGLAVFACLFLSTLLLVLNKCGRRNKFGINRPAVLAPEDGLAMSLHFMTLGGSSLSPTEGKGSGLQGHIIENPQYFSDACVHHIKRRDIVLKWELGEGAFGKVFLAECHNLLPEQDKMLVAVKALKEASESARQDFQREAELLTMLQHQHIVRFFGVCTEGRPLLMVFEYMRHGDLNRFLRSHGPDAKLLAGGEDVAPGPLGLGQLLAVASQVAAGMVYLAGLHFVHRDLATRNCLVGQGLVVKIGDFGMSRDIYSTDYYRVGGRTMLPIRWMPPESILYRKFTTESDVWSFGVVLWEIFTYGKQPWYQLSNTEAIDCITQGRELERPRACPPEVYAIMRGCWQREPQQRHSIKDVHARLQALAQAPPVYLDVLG
BDNF/NT-3 growth factors receptor, sequence (Q16620 whole entry): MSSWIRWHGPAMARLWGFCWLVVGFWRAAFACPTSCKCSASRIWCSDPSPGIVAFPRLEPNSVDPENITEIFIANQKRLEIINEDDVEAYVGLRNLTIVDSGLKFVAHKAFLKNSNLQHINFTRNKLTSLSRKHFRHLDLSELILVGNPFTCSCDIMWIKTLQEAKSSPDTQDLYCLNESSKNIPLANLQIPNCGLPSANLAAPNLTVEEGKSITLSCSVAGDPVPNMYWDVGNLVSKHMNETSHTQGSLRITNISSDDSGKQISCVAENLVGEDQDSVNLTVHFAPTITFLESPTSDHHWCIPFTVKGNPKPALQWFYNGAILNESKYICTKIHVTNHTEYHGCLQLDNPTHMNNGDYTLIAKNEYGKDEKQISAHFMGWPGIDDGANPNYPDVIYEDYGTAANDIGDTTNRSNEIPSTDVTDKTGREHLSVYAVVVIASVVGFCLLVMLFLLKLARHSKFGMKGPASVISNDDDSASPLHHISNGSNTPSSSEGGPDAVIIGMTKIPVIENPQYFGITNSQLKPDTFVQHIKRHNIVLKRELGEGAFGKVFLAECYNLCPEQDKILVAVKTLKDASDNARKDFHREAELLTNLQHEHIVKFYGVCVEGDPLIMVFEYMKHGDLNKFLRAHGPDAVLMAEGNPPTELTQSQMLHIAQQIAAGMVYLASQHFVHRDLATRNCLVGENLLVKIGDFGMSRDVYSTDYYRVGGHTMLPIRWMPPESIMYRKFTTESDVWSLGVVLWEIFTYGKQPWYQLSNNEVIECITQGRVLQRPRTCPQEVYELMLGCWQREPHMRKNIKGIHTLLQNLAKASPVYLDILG

| hepatocyte CLint [2] [µL/min/1e6 cells] | IC50 [7] [nM] | IC50 [8] [nM] | Ratio IC50 (Homo sapiens [10]) | microsomal CLint [13] [µL/min/mg] | microsomal CLint [14] [µL/min/mg] | IC50 [17] [nM] | logD [18] | Structure (SMILES) | other results |
| --- | --- | --- | --- | --- | --- | --- | --- | --- | --- |
| 110 | 24 | 1200 | > 1000 | 191 | 96 | 0.6 | 2 | CN1CCC(n2cc(Nc3nc(OC4(C)CC4)c4nc(-c5cncnc5)ccc4n3)cn2)CC1 | IC50 [1]: 82 nM; Ratio IC50 (Homo sapiens [3]): 32; Ratio IC50 (Homo sapiens [4]): 30; IC50 [5]: 19 nM; IC50 [6]: 44 nM; IC50 [9]: 36 nM; IC50 [11]: 2 nM; Ratio IC50 (Homo sapiens [12]): 60; IC50 [15]: 18 nM; Ratio IC50 (Homo sapiens [16]): 3; Ratio IC50 (Homo sapiens [19]): 140; Ratio IC50 (Homo sapiens [20]): 70 |
| 1.9 | 100 | 16 | > 30 | < 0.5 | 18 | 3 | 1.8 | Cc1ccc2nc(Nc3cnn(C4CCN(C)CC4)c3)nc(OC3(C)CC3)c2n1 | efflux ratio at 6 h [21]: 2.5; LBF [22]: 20%; Papp A→B at 6 h [23]: 20 ×10⁻⁶ cm/s; clearance [24]: 5 mL/min/kg |
| 1.7 | 210 | 170 | < 5 | – | 15 | 3 | 2.2 | CN1CCC(n2cc(Nc3nc(OC4(C)CC4)c4nc(-c5cnn(C)c5)ccc4n3)cn2)CC1 | – |
